Data as given in PubChem BioAssay AID1963425 (Molecular Pharmacology Branch, DTP, NCI, 2024).

System: 323965-272-R-J2-PDC complex spheroid growth, % test/control
Assay: Anticancer human tumor 323965-272-R-J2-PDC patient-derived pancreatic carcinoma cell line growth inhibition [Asc]
Settings: for IC50: curve of first compound; for viability, T/C: stronger effect = lower value
Procedure, shortened: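 Tumor cells were grown as complex spheroids with human endothelial cells (HUVEC) and human mesenchymal stem cells as stroma. Agents were tested alone and in combination, in half-log steps down from the clinical Cmax, or from 10 microM where Cmax was unknown.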

[1] = second compound 0.0316 µM, first compound 0.00316 µM
[2] = second compound 0.0316 µM, first compound 0.01 µM
[3] = second compound 0.0316 µM, first compound 0.0316 µM
[4] = second compound 0.0316 µM, first compound 0.1 µM
[5] = second compound 0.0316 µM, first compound 0.316 µM
[6] = second compound 0.0316 µM, first compound 1 µM
[7] = second compound 0.1 µM, first compound 0.00316 µM
[8] = second compound 0.1 µM, first compound 0.01 µM
[9] = second compound 0.1 µM, first compound 0.0316 µM
[10] = second compound 0.1 µM, first compound 0.1 µM
[11] = second compound 0.1 µM, first compound 0.316 µM
[12] = second compound 0.1 µM, first compound 1 µM
[13] = second compound 0.316 µM, first compound 0.00316 µM
[14] = second compound 0.316 µM, first compound 0.01 µM
[15] = second compound 0.316 µM, first compound 0.0316 µM
[16] = second compound 0.316 µM, first compound 0.1 µM
[17] = second compound 0.316 µM, first compound 0.316 µM
[18] = second compound 0.316 µM, first compound 1 µM
[19] = second compound 1 µM, first compound 0.00316 µM
[20] = second compound 1 µM, first compound 0.01 µM
[21] = second compound 1 µM, first compound 0.0316 µM
[22] = second compound 1 µM, first compound 0.1 µM
[23] = second compound 1 µM, first compound 0.316 µM
[24] = second compound 1 µM, first compound 1 µM
[25] = second compound 3.16 µM, first compound 0.00316 µM
[26] = second compound 3.16 µM, first compound 0.01 µM
[27] = second compound 3.16 µM, first compound 0.0316 µM
[28] = second compound 3.16 µM, first compound 0.1 µM
[29] = second compound 3.16 µM, first compound 0.316 µM
[30] = second compound 3.16 µM, first compound 1 µM
[31] = second compound 10 µM, first compound 0.00316 µM
[32] = second compound 10 µM, first compound 0.01 µM
[33] = second compound 10 µM, first compound 0.0316 µM
[34] = second compound 10 µM, first compound 0.1 µM
[35] = second compound 10 µM, first compound 0.316 µM
[36] = second compound 10 µM, first compound 1 µM
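Also: compound exposure lasted 7 days starting three days after spheroid seeding.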
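For viability, T/C in this document: 100% = DMSO vehicle control wells with viability set relative to vehicle.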

## CCN1CCN(Cc2ccc(Nc3ncc(F)c(-c4cc(F)c5nc(C)n(C(C)C)c5c4)n3)nc2)CC1 + Cc1c(S(C)(=O)=O)c(-c2cc(F)cc(N3CCN(c4ccc(NS(=O)(=O)c5ccc(NC(CCN6CCC(C(=O)OCCCP(=O)(O)O)CC6)CSc6ccccc6)c(S(=O)(=O)C(F)(F)F)c5)cc4)CC3)c2)c(-c2ccc(Cl)cc2)n1C(C)C
Second compound 0.0316 µM
  IC50: > 1000 nM
Second compound 0.1 µM
  IC50: > 1000 nM
Second compound 0.316 µM
  IC50: > 1000 nM
Second compound 1 µM
  IC50: > 1000 nM
Second compound 3.16 µM
  IC50: > 1000 nM
Second compound 10 µM
  IC50: > 1000 nM
[1]
  viability, T/C: 110%
[2]
  viability, T/C: 98.8%
[3]
  viability, T/C: 106%
[4]
  viability, T/C: 90.4%
[5]
  viability, T/C: 70.5%
[6]
  viability, T/C: 67.7%
[7]
  viability, T/C: 102%
[8]
  viability, T/C: 109%
[9]
  viability, T/C: 95.1%
[10]
  viability, T/C: 82.5%
[11]
  viability, T/C: 70.7%
[12]
  viability, T/C: 73.6%
[13]
  viability, T/C: 103%
[14]
  viability, T/C: 102%
[15]
  viability, T/C: 100%
[16]
  viability, T/C: 81%
[17]
  viability, T/C: 72.5%
[18]
  viability, T/C: 78.1%
[19]
  viability, T/C: 102%
[20]
  viability, T/C: 93.1%
[21]
  viability, T/C: 84.2%
[22]
  viability, T/C: 76.6%
[23]
  viability, T/C: 72.8%
[24]
  viability, T/C: 70.3%
[25]
  viability, T/C: 83.9%
[26]
  viability, T/C: 86.2%
[27]
  viability, T/C: 77.8%
[28]
  viability, T/C: 65.8%
[29]
  viability, T/C: 67.5%
[30]
  viability, T/C: 61.2%
[31]
  viability, T/C: 76.4%
[32]
  viability, T/C: 74.4%
[33]
  viability, T/C: 64.1%
[34]
  viability, T/C: 66.5%
[35]
  viability, T/C: 71.3%
[36]
  viability, T/C: 70.3%

## NC(=O)C(=Cn1cnc(-c2cc(C(F)(F)F)cc(C(F)(F)F)c2)n1)c1cncnc1 + Cc1c(S(C)(=O)=O)c(-c2cc(F)cc(N3CCN(c4ccc(NS(=O)(=O)c5ccc(NC(CCN6CCC(C(=O)OCCCP(=O)(O)O)CC6)CSc6ccccc6)c(S(=O)(=O)C(F)(F)F)c5)cc4)CC3)c2)c(-c2ccc(Cl)cc2)n1C(C)C
Second compound 0.0316 µM
  IC50: > 300 nM
Second compound 0.1 µM
  IC50: > 300 nM
Second compound 0.316 µM
  IC50: > 300 nM
Second compound 1 µM
  IC50: 205 nM
Second compound 3.16 µM
  IC50: 114 nM
Second compound 10 µM
  IC50: 63.7 nM
Second compound 0.0316 µM, first compound 0.000949 µM
  viability, T/C: 111%
Second compound 0.0316 µM, first compound 0.003 µM
  viability, T/C: 96.9%
Second compound 0.0316 µM, first compound 0.00949 µM
  viability, T/C: 115%
Second compound 0.0316 µM, first compound 0.03 µM
  viability, T/C: 89.1%
Second compound 0.0316 µM, first compound 0.0949 µM
  viability, T/C: 81.5%
Second compound 0.0316 µM, first compound 0.3 µM
  viability, T/C: 55.8%
Second compound 0.1 µM, first compound 0.000949 µM
  viability, T/C: 95.2%
Second compound 0.1 µM, first compound 0.003 µM
  viability, T/C: 92.8%
Second compound 0.1 µM, first compound 0.00949 µM
  viability, T/C: 92%
Second compound 0.1 µM, first compound 0.03 µM
  viability, T/C: 94.8%
Second compound 0.1 µM, first compound 0.0949 µM
  viability, T/C: 78%
Second compound 0.1 µM, first compound 0.3 µM
  viability, T/C: 53.8%
Second compound 0.316 µM, first compound 0.000949 µM
  viability, T/C: 94%
Second compound 0.316 µM, first compound 0.003 µM
  viability, T/C: 100%
Second compound 0.316 µM, first compound 0.00949 µM
  viability, T/C: 93.3%
Second compound 0.316 µM, first compound 0.03 µM
  viability, T/C: 84.9%
Second compound 0.316 µM, first compound 0.0949 µM
  viability, T/C: 76.1%
Second compound 0.316 µM, first compound 0.3 µM
  viability, T/C: 49.8%
Second compound 1 µM, first compound 0.000949 µM
  viability, T/C: 91%
Second compound 1 µM, first compound 0.003 µM
  viability, T/C: 88.6%
Second compound 1 µM, first compound 0.00949 µM
  viability, T/C: 80.2%
Second compound 1 µM, first compound 0.03 µM
  viability, T/C: 77.6%
Second compound 1 µM, first compound 0.0949 µM
  viability, T/C: 64.4%
Second compound 1 µM, first compound 0.3 µM
  viability, T/C: 42.6%
Second compound 3.16 µM, first compound 0.000949 µM
  viability, T/C: 79%
Second compound 3.16 µM, first compound 0.003 µM
  viability, T/C: 78.1%
Second compound 3.16 µM, first compound 0.00949 µM
  viability, T/C: 76%
Second compound 3.16 µM, first compound 0.03 µM
  viability, T/C: 63.1%
Second compound 3.16 µM, first compound 0.0949 µM
  viability, T/C: 55%
Second compound 3.16 µM, first compound 0.3 µM
  viability, T/C: 32.6%
Second compound 10 µM, first compound 0.000949 µM
  viability, T/C: 69.9%
Second compound 10 µM, first compound 0.003 µM
  viability, T/C: 68.7%
Second compound 10 µM, first compound 0.00949 µM
  viability, T/C: 63.1%
Second compound 10 µM, first compound 0.03 µM
  viability, T/C: 63.6%
Second compound 10 µM, first compound 0.0949 µM
  viability, T/C: 43%
Second compound 10 µM, first compound 0.3 µM
  viability, T/C: 30.3%

## O=C(c1ccc(F)c(F)c1Nc1ccc(I)cc1F)N1CC(O)([C@@H]2CCCCN2)C1 + Cc1c(S(C)(=O)=O)c(-c2cc(F)cc(N3CCN(c4ccc(NS(=O)(=O)c5ccc(NC(CCN6CCC(C(=O)OCCCP(=O)(O)O)CC6)CSc6ccccc6)c(S(=O)(=O)C(F)(F)F)c5)cc4)CC3)c2)c(-c2ccc(Cl)cc2)n1C(C)C
Second compound 0.0316 µM
  IC50: 139 nM
Second compound 0.1 µM
  IC50: 133 nM
Second compound 0.316 µM
  IC50: 81.6 nM
Second compound 1 µM
  IC50: 51.8 nM
Second compound 3.16 µM
  IC50: 29.6 nM
Second compound 10 µM
  IC50: 20.9 nM
[1]
  viability, T/C: 91%
[2]
  viability, T/C: 89.6%
[3]
  viability, T/C: 77.3%
[4]
  viability, T/C: 54.5%
[5]
  viability, T/C: 35.2%
[6]
  viability, T/C: 16.4%
[7]
  viability, T/C: 115%
[8]
  viability, T/C: 103%
[9]
  viability, T/C: 76.5%
[10]
  viability, T/C: 59.6%
[11]
  viability, T/C: 30%
[12]
  viability, T/C: 15.1%
[13]
  viability, T/C: 98.2%
[14]
  viability, T/C: 98.7%
[15]
  viability, T/C: 68.1%
[16]
  viability, T/C: 47.4%
[17]
  viability, T/C: 21.9%
[18]
  viability, T/C: 10.4%
[19]
  viability, T/C: 88.8%
[20]
  viability, T/C: 70.5%
[21]
  viability, T/C: 61.5%
[22]
  viability, T/C: 40.3%
[23]
  viability, T/C: 16.7%
[24]
  viability, T/C: 7.35%
[25]
  viability, T/C: 82%
[26]
  viability, T/C: 63.5%
[27]
  viability, T/C: 52.6%
[28]
  viability, T/C: 28.2%
[29]
  viability, T/C: 10.3%
[30]
  viability, T/C: 3.52%
[31]
  viability, T/C: 78.6%
[32]
  viability, T/C: 66.5%
[33]
  viability, T/C: 39.3%
[34]
  viability, T/C: 22.3%
[35]
  viability, T/C: 7.23%
[36]
  viability, T/C: 3.38%
